Measured values published in patent publication US20170107207A1, “AMINOPYRAZOLONE DERIVATIVE” (DAIICHI SANKYO COMPANY, LIMITED, priority 2014, published 2017).
pIC50: −log10 of the molar value. Counter-ions that a name gives are not always drawn.

Assays:
[1] = molecular target: T1, TIP48/TIP49 complex (Homo sapiens, UniProt Q9Y230+Q9Y265); experiment: ATPase assay of TIP48/TIP49 complex (ADP-Glo); format: biochemical; settings: concentration at which the ATPase activity was inhibited by 50%
T1 construct: made in house; host or cells: E. coli
T1 sequence (Q9Y230 whole entry): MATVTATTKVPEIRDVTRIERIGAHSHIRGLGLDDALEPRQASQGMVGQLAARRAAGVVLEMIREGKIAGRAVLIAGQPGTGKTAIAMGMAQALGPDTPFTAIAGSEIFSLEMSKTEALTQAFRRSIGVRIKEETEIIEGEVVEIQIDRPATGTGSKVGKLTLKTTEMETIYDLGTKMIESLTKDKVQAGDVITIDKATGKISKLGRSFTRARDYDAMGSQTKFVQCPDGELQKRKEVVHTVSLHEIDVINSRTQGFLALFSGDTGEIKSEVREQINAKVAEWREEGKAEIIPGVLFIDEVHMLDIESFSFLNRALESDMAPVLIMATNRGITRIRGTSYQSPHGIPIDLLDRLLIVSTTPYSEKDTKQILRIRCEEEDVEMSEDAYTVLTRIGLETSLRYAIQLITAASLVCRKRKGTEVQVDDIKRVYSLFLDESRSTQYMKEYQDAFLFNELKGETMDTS
T1 sequence (Q9Y265 whole entry): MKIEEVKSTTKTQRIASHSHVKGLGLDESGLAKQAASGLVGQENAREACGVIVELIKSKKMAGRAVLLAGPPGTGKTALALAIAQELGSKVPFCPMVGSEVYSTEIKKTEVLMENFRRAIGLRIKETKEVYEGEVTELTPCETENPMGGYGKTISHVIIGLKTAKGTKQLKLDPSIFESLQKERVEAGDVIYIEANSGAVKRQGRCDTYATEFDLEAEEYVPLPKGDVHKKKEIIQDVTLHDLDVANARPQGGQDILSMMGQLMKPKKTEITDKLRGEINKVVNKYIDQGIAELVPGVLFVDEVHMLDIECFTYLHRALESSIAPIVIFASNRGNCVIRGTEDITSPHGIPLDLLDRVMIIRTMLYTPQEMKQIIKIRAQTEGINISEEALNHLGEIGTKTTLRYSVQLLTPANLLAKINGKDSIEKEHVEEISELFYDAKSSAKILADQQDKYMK
Excerpt: The ATPase activity of the TIP48/TIP49 complex can be measured by use of an ATPase assay described below in Test Examples 1 and 2. The ATPase activity of the TIP48/TIP49 complex can be measured, as described below in the Test Examples, for example, by using recombinant human TIP48 and TIP49 proteins (hereinafter, referred to as rTIP48 and rTIP49) and ATP in the presence or absence of a test compound and measuring the amount of ADP formed through hydrolysis by the ATPase activity of the TIP48/TIP49 complex, using ADP-Glo. Alternatively, the ATPase activity of the TIP48/TIP49 complex can be measured by a method described in, for example, J. Mol. Biol. 366, 172-179 (2007).
An ATPase assay of a TIP48/TIP49 complex was conducted using rTIP48 and rTIP49. Human TIP48 and TIP49 DNAs were purchased from Open Biosystems. Human TIP48 and TIP49 cDNAs cloned by PCR using the purchased DNAs were each integrated into plasmids for expression in E. coli and expressed in E. coli to obtain rTIP48 and rTIP49.
A test compound was dissolved at 10 mM using DMSO. The solution was diluted to 10 concentrations as 4-fold serial dilutions from 10 mM using DMSO.
A 2×assay buffer (100 mM Tris-HCl, pH 7.5, 100 mM NaCl, 40 mM MgCl2, 2 mM DTT, 20 μM ATP, and 0.2 mg/mL BSA) was dispensed at 24.5 μL/well to a 384-well assay plate.
Test compound solutions were dispensed thereto at 1 μL/well. Subsequently, the solution in each well was mixed using a plate mixer.
rTIP48 and rTIP49 were diluted to a concentration of 50 μg/mL using sterilized water. The diluted solution was dispensed at 24.5 μL/well to the 384-well assay plate. Subsequently, the solution in each well was mixed using a plate mixer (final concentration: 24.5 μg/mL) (concentration of each test compound solution: 200 μM, 50 μM, 12.5 μM, 3.12 μM, 0.78 μM, 0.20 μM, 0.049 μM, 0.012 μM, 0.003 μM, and 0.0007 μM; DMSO concentration: 2%).
After the mixing using the plate mixer, the assay plate was left standing at room temperature for 1.5 hours.
5 μL of the solution in each well was transferred to a white assay plate, and ADP-Glo Reagent from ADP-Glo Kinase Assay (Promega Corp., catalog No. V9101) was dispensed thereto at 5 μL/well. After completion of the reaction, the plate was left standing at room temperature for 40 minutes. Kinase Detection Reagent was further dispensed thereto at 5 μL/well, and the plate was left standing at room temperature for 30 minutes. Then, luminescence intensity was measured using a plate reader.
The ATPase inhibitory activity was calculated according to the expression given below.
The luminescence intensity of a well supplemented with the test compound and the TIP48/TIP49 complex was defined as A. The luminescence intensity of a well supplemented with only the TIP48/TIP49 complex was defined as B. The luminescence intensity of a well supplemented with neither the test compound nor the TIP48/TIP49 complex was defined as C. The ratio between the test compound-supplemented group and the test compound-nonsupplemented group (T/C value) was determined according to the following calculation expression:
The dose-response curve was calculated using GraphPad Prism 4 from the concentration of each of the serially diluted test compounds and the ATPase inhibitory activity (%) at this concentration.

[2] = system: human lymphoma cell line RAMOS cells; experiment: Cell growth inhibition test using RAMOS cell, ATP assay (CellTiter-Glo); format: cell-based; settings: Homo sapiens, Ramos, 72 h, cultured 3 days, 50% growth inhibition concentration
Method: A cell growth inhibition test was carried out by treating human lymphoma cell line RAMOS cells with a test compound for a given period and then counting the number of viable cells by MTT assay or CellTiter-Glo Luminescent Cell Viability Assay (manufactured by Promega Corp.; hereinafter, referred to as ATP assay).
RAMOS cells were inoculated at 4000 cells/40 μL/well to a 384-well plate containing the compound prepared in advance at predetermined concentrations. The cells thus inoculated were cultured at 37° C. for 3 days under 5% CO2. In order to measure a cell survival rate, CellTiter-Glo Reagent was added in an amount corresponding to 1/4 of the amount of the culture solution at the day of cell inoculation and at the final culture date and stirred at room temperature for 2 minutes. Then, luminescence intensity was measured using a plate reader. The cell survival rate was calculated according to the expression given below.
The number of viable cells and luminescence intensity have been confirmed to correlate with each other. Therefore, the rate of cell growth was calculated according to the following expression: Rate of cell growth (T/C %) of a test compound-supplemented well=100×[(B−C)/(A−C)] wherein A represents the luminescence intensity (final culture date) of a test compound-free well; B represents the luminescence intensity (final culture date) of a test compound-containing well; and C represents the luminescence intensity (day of cell inoculation) of a well at the start of contact of the cells with the test compound.
T/C % at each concentration of the test compound was determined. The concentration at which the test compound offered 50% growth rate was calculated as a GI50 value from the growth rates at two points interpolating 50% and the concentrations, and is shown in Table 56.

`CCOc1cc(F)c(Cl)cc1C(=O)NCC(C)(C)CC(=O)Nc1c([C@@H](C)OC)n(C)n(-c2ccccc2)c1=O` [Example 124, 5-Chloro-2-ethoxy-4-fluoro-N-(4-{[5-((1R)-1-methoxyethyl)-1-methyl-3-oxo-2-phenyl-2,3-dihydro-1H-pyrazol-4-yl]amino}-2,2-dimethyl-4-oxobutyl)benzamide] gave a pIC50 [1] of 7.42 and a GI50 [2] of 140 nM.

`Cc1cc2cc(Cl)cc(C(=O)NCC(C)(C)CC(=O)Nc3c(CCN(C)C)n(C)n(-c4ccccc4F)c3=O)c2o1` [Example 46, 5-Chloro-N-[4-({3-[2-(dimethylamino)ethyl]-1-(2-fluorophenyl)-2-methyl-5-oxo-1,5-dihydro-1H-pyrazol-4-yl}amino)-2,2-dimethyl-4-oxobutyl]-2-methylbenzofuran-7-carboxamide] was tested, and the pIC50 [1] was 7.09 and the GI50 [2] was 470 nM.

Compound `CCOc1cc(F)c(Cl)cc1C(=O)NCC(C)(C)CC(=O)Nc1c(C(C)CN(C)C)n(C)n(-c2ccccc2)c1=O` (centres unmarked) [Example 69, 5-Chloro-N-[4-({5-[2-(dimethylamino)-1-methylethyl]-1-methyl-3-oxo-2-phenyl-2,3-dihydro-1H-pyrazol-4-yl}amino)-2,2-dimethyl-4-oxobutyl]-2-ethoxy-4-fluorobenzamide] has a pIC50 [1] of 7.19 and a GI50 [2] of 160 nM.

Work on `CCOc1cc(F)c(Cl)cc1C(=O)NCC(C)(C)CC(=O)Nc1c(CCNC)n(C)n(-c2ccccc2)c1=O` [Example 34, 5-Chloro-N-[2,2-dimethyl-4-({1-methyl-5-[2-(methylamino)ethyl]-3-oxo-2-phenyl-2,3-dihydro-1H-pyrazol-4-yl}amino)-4-oxobutyl]-2-ethoxy-4-fluorobenzamide] yielded a pIC50 [1] of 7.25 and a GI50 [2] of 470 nM.

`CCOc1ccc(Cl)cc1C(=O)NCC(C)(C)CC(=O)Nc1c(C(C)CNC)n(C)n(-c2ccccc2)c1=O` (centres unmarked) [Example 76, 5-Chloro-N-[2,2-dimethyl-4-({1-methyl-5-[1-methyl-2-(methylamino)ethyl]-3-oxo-2-phenyl-2,3-dihydro-1H-pyrazol-4-yl}amino)-4-oxobutyl]-2-ethoxybenzamide] showed a pIC50 [1] of 7.17 and a GI50 [2] of 590 nM.

In the case of `CCOc1cc(F)c(Cl)cc1C(=O)NCC(C)(C)CC(=O)Nc1c(C(CN(C)C)OC)n(C)n(-c2ccccc2)c1=O` (centres unmarked) [Example 80, 5-Chloro-N-[4-({5-[2-(dimethylamino)-1-methoxyethyl]-1-methyl-3-oxo-2-phenyl-2,3-dihydro-1H-pyrazol-4-yl}amino)-2,2-dimethyl-4-oxobutyl]-2-ethoxy-4-fluorobenzamide], the pIC50 [1] was 6.85 and the GI50 [2] was 170 nM.

Work on `CCOc1ncc(Cl)cc1C(=O)NCC(C)(C)CC(=O)Nc1c(C[C@H](C)N(C)C)n(C)n(-c2ccccc2)c1=O` [Example 53, 5-Chloro-N-[4-({5-[(2S)-2-(dimethylamino)propyl]-1-methyl-3-oxo-2-phenyl-2,3-dihydro-1H-pyrazol-4-yl}amino)-2,2-dimethyl-4-oxobutyl]-2-ethoxypyridine-3-carboxamide] yielded a pIC50 [1] of 7.20 and a GI50 [2] of 240 nM.

With `CCOc1cc(F)c(Cl)cc1C(=O)NCC(C)(C)CC(=O)Nc1c(CCCN(C)C)n(C)n(-c2ccccc2)c1=O` [Example 64, 5-Chloro-N-[4-({5-[3-(dimethylamino)propyl]-1-methyl-3-oxo-2-phenyl-2,3-dihydro-1H-pyrazol-4-yl}amino)-2,2-dimethyl-4-oxobutyl]-2-ethoxy-4-fluorobenzamide monohydrochloride] the pIC50 [1] was 7.00 and the GI50 [2] was 190 nM.

In the case of `CCOc1ncc(Cl)cc1C(=O)NCC(C)(C)CC(=O)Nc1c([C@@H](C)CN(C)C)n(C)n(-c2ccccc2)c1=O` [Example 72, 5-Chloro-N-[4-({5-[(1S)-2-(dimethylamino)-1-methylethyl]-1-methyl-3-oxo-2-phenyl-2,3-dihydro-1H-pyrazol-4-yl}amino)-2,2-dimethyl-4-oxobutyl]-2-ethoxypyridine-3-carboxamide], the pIC50 [1] was 7.10 and the GI50 [2] was 510 nM.

For `CCOc1ccc(Cl)cc1C(=O)NCC(C)(C)CC(=O)Nc1c(CC(N)=O)n(C)n(-c2ccccc2)c1=O` [Example 132, N-(4-{[5-(2-Amino-2-oxoethyl)-1-methyl-3-oxo-2-phenyl-2,3-dihydro-1H-pyrazol-4-yl]amino}-2,2-dimethyl-4-oxobutyl)-5-chloro-2-ethoxybenzamide], the pIC50 [1] was 7.00 and the GI50 [2] was 120 nM.

For `CCOc1cc(F)c(Cl)cc1C(=O)NCC(C)(C)CC(=O)Nc1c(CCNCC(F)(F)F)n(C)n(-c2ccccc2)c1=O` [Example 27, 5-Chloro-N-[2,2-dimethyl-4-({1-methyl-3-oxo-2-phenyl-5-[2-(2,2,2-trifluoroethylamino)ethyl]-2,3-dihydro-1H-pyrazol-4-yl}amino)-4-oxobutyl]-2-ethoxy-4-fluorobenzamide], the pIC50 [1] was 7.32 and the GI50 [2] was 130 nM.

For `Cc1cc2cc(Cl)cc(C(=O)NCC(C)(C)CC(=O)Nc3c(CCCCN(C)C)n(C)n(-c4ccccc4)c3=O)c2o1` [Example 90, 5-Chloro-N-[4-({5-[4-(dimethylamino)butyl]-1-methyl-3-oxo-2-phenyl-2,3-dihydro-1H-pyrazol-4-yl}amino)-2,2-dimethyl-4-oxobutyl]-2-methylbenzofuran-7-carboxamide], the pIC50 [1] was 7.55 and the GI50 [2] was 140 nM.

In the case of `CCOc1ccc(Cl)cc1C(=O)NCC(C)(C)CC(=O)Nc1c(C[C@H](C)N(C)C)n(C)n(-c2ccccc2)c1=O` [Example 51, 5-Chloro-N-[4-({5-[(2S)-2-(dimethylamino)propyl]-1-methyl-3-oxo-2-phenyl-2,3-dihydro-1H-pyrazol-4-yl}amino)-2,2-dimethyl-4-oxobutyl]-2-ethoxybenzamide], the pIC50 [1] was 7.15 and the GI50 [2] was 140 nM.

In the case of `CCOc1ccc(Cl)cc1C(=O)NCC(C)(C)CC(=O)Nc1c(CC(C)(C)N(C)C)n(C)n(-c2ccccc2)c1=O` [Example 56, 5-Chloro-N-[4-({5-[2-(dimethylamino)-2-methylpropyl]-1-methyl-3-oxo-2-phenyl-2,3-dihydro-1H-pyrazol-4-yl}amino)-2,2-dimethyl-4-oxobutyl]-2-ethoxybenzamide], the pIC50 [1] was 7.40 and the GI50 [2] was 120 nM.

In the case of `CCOc1ccc(Cl)cc1C(=O)NCC(CF)(CF)CC(=O)Nc1c(CCN(C)C)n(C)n(-c2ccccc2)c1=O` [Example 62, 5-Chloro-N-[4-({5-[2-(dimethylamino)ethyl]-1-methyl-3-oxo-2-phenylpyrazolo-4-yl}amino)-2,2-bis(fluoromethyl)-4-oxobutyl]-2-ethoxybenzamide], the pIC50 [1] was 6.82 and the GI50 [2] was 500 nM.

With `CCOc1ccc(Cl)cc1C(=O)NCC(C)(C)CC(=O)Nc1c(C(C)CN(C)C)n(C)n(-c2ccccc2)c1=O` (centres unmarked) [Example 66, 5-Chloro-N-[4-({5-[2-(dimethylamino)-1-methylethyl]-1-methyl-3-oxo-2-phenyl-2,3-dihydro-1H-pyrazol-4-yl}amino)-2,2-dimethyl-4-oxobutyl]-2-ethoxybenzamide] the pIC50 [1] was 7.24 and the GI50 [2] was 160 nM.
